Laboratory results taken from patent publication US10695364B2, “Anti-hemorrhaging compositions” (Ariel-University Research and Development Company Ltd., priority 2015, dated 2020).
“Also recorded” adds a separate entry of the source. Where a name gives a salt, the structure may show the parent alone.

Test system: blood drawn from mice
Assay: Blood coagulation assay (presence or absence of blood clots, observed with CCD camera)
Protocol: Rats or mice (2-3 months old) were sacrificed using CO2 and their blood was extracted directly from the heart using 1 ml syringe and a 23-gauge needle. Blood was transferred to two groups of experimental tubes (400 microliters in each): empty tubes, and tubes containing citrate at a final concentration of 0.35% by weight (e.g., 50 μl of a respective 3.2% stock solution of trisodium citrate in water).
The anti-coagulant activity of the citrate powder was confirmed by recording absence of clot formation during the entire experiment, and thereafter, each of the following components was added to the tubes in both groups, at varying amounts:
=Coral skeleton particulates prepared from Porites lutea (to achieve a final concentration of 50-200 mg/ml)
=Coral skeleton particulates prepared from Stylophora subseriata (to achieve a final concentration of 50-200 mg/ml)
=Geological aragonite (to achieve a final concentration of 50-200 mg/ml)
=amorphous calcium carbonate (ACC) (1-200 mg, to achieve a final concentration of 2-50 mg/ml)
=Glass beads (0.1 mm diameter; to achieve a final concentration of 100 mg/ml)
Coagulation and anti-coagulation activity (presence and absence, respectively, of blood clots) was observed using a CCD camera.

| Compound | effect of citrate by itself on clotting (blood drawn from mice, 0.35% by weight of citrate, no calcium carbonate) | coagulation time of citrate-containing blood (final concentration 50 mg/ml, citrate-containing blood, data not shown) [min] |
| --- | --- | --- |
| O=C(O)CC(O)(CC(=O)O)C(=O)O [citrate, Trisodium citrate] | blocked clotting; also recorded: anti-coagulation effect | – |
| O=C([O-])[O-].[K+].[K+] [potassium carbonate] | – | 40 to 45 |
